The values below come from patent publication US10758534B2 (Vertex Pharmaceuticals Incorporated, priority 2014, dated 2020).

T1 sequence (P13569 with tags, fused parts or gaps DEL508-508): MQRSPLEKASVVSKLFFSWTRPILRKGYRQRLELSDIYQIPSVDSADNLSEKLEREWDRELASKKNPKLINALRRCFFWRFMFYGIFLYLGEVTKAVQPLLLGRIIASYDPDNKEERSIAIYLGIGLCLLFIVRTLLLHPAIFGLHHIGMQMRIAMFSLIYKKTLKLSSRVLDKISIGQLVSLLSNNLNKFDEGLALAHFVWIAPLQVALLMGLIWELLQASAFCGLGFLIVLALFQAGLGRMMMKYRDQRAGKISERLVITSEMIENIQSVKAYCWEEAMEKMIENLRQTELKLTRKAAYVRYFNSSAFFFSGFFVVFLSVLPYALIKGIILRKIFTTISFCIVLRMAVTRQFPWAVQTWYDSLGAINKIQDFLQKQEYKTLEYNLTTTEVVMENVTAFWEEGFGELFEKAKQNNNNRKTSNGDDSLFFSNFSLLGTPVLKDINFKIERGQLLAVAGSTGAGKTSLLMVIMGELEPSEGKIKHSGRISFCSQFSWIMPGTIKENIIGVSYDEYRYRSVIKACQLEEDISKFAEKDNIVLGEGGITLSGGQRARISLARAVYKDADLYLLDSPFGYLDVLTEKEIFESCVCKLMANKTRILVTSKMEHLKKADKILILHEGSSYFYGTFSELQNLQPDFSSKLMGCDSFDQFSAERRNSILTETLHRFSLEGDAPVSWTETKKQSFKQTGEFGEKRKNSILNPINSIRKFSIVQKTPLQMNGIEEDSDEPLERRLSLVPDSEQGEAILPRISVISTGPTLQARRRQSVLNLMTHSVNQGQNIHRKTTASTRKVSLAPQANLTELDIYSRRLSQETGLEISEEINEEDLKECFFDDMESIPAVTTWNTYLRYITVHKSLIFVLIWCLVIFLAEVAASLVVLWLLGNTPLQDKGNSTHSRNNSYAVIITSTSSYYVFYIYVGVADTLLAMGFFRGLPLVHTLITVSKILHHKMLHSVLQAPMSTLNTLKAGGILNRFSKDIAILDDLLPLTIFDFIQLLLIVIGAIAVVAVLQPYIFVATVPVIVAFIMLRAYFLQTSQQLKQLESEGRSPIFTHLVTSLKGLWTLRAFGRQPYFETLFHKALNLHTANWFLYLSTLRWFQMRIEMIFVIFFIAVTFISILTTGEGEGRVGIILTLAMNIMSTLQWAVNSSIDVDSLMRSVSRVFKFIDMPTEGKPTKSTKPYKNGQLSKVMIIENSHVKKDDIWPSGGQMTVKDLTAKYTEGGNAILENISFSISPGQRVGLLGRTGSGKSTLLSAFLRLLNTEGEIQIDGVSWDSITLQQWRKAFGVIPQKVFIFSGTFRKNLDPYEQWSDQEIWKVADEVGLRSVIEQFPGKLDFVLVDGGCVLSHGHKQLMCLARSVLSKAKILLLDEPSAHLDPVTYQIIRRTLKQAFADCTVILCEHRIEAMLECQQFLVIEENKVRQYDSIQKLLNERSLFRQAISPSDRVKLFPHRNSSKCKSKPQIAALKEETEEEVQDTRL

This assay addresses T1, F508del (Homo sapiens, UniProt P13569, DEL508-508).
T1 construct: expressed in transfected cells
Kind of assay: Protocol 1: membrane potential optical assay (FLIPR III, voltage sensing dye), identification of potentiator compounds. The class given is cell-based. To be noted: Table 3, compounds of Table 1. A digest of the protocol: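 NIH3T3 F508del cells, 27° C × 24 hrs; compound/DMSO pretreat → redistribution dye load → single forskolin addition with Cl⁻ gradient (gluconate-substituted bath, HEPES pH 7.4). FLIPR III membrane-potential fluorescence read.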
On to `CC1CN(c2ncccc2C(=O)NS(=O)(=O)c2cccc(N3CCN(C(=O)OC(C)(C)C)CC3)n2)C(C)(C)C1` (stereo not shown) [Compound 1773, tert-butyl 4-[6-[[2-(2,2,4-trimethylpyrrolidin-1-yl)pyridine-3-carbonyl]sulfamoyl]-2-pyridyl]piperazine-1-carboxylate], for which the EC30 entry is “+++ (“+++” means <3 uM)”.

For the molecule `CC(C)Oc1ccc(-c2ccc(C(=O)NS(=O)(=O)c3cccc(N)n3)c(N3CCC(F)(F)CC3)n2)cn1` [Compound 889, N-[(6-amino-2-pyridyl)sulfonyl]-2-(4,4-difluoro-1-piperidyl)-6-(6-isopropoxy-3-pyridyl)pyridine-3-carboxamide], the EC30 entry is “++ (“++” means between 3 uM and 10 uM)”. `Cc1cc(C)c(CN2c3ccccc3C[C@@H]2C(=O)NS(=O)(=O)c2ccccc2)c(C)c1` [Compound 918, (2R)—N-(benzenesulfonyl)-1-[(2,4,6-trimethylphenyl)methyl]indoline-2-carboxamide]: the EC30 result is recorded as “+++ (“+++” means <3 uM)”. As for `Cc1cc(OCC(C)(C)C)ncc1-c1ccc(C(=O)NS(=O)(=O)c2cccc(N)n2)c(N2CC(C)CC2(C)C)n1` (stereo not shown) [Compound 1160, N-[(6-amino-2-pyridyl)sulfonyl]-6-[6-(2,2-dimethylpropoxy)-4-methyl-3-pyridyl]-2-(2,2,4-trimethylpyrrolidin-1-yl)pyridine-3-carboxamide], the entry is “+++ (“+++” means <3 uM)”.

As to `CCOc1cccc2c1CN(Cc1ccc(F)cc1)C2(C)C(=O)NS(=O)(=O)c1cccc(N)n1` (stereo not shown) [Compound 1433, N-[(6-amino-2-pyridyl)sulfonyl]-4-ethoxy-2-[(4-fluorophenyl)methyl]-1-methyl-isoindoline-1-carboxamide], the EC30 entry was “++ (“++” means between 3 uM and 10 uM)”. Regarding `C[C@@H]1CN(c2nc(-c3cccc(F)c3)ccc2C(=O)NS(=O)(=O)c2cccnc2N)C(C)(C)C1` [Compound 1873, N-[(2-amino-3-pyridyl)sulfonyl]-6-(3-fluorophenyl)-2-[(4S)-2,2,4-trimethylpyrrolidin-1-yl]pyridine-3-carboxamide], the EC30 result was “+++ (“+++” means <3 uM)”. The result for `CC(CO)COc1cc(F)cc(-c2ccc(C(=O)NS(=O)(=O)c3ccccc3)c(N3C[C@@H](C)CC3(C)C)n2)c1` (stereo partly drawn) [Compound 1515, N-(benzenesulfonyl)-6-[3-fluoro-5-(3-hydroxy-2-methyl-propoxy)phenyl]-2-[(4S)-2,2,4-trimethylpyrrolidin-1-yl]pyridine-3-carboxamide] reads “+++ (“+++” means <3 uM)”. For `Cc1cc(C)c(CN2Cc3ccccc3CCC2C(=O)NS(=O)(=O)c2ccc[nH]c2=O)c(C)c1` (stereo not shown) [Compound 855, N-[(2-oxo-1H-pyridin-3-yl)sulfonyl]-2-[(2,4,6-trimethylphenyl)methyl]-1,3,4,5-tetrahydro-2-benzazepine-3-carboxamide], the EC30 result is given as “+ (“+” means greater than 10 uM)”. Turning to `CC1CN(c2nc(C(C)(C)C)c(C3=CC4CCC(C3)N4C(=O)OC(C)(C)C)cc2C(=O)NS(=O)(=O)c2cccc(N)n2)C(C)(C)C1` (stereo not shown) [Compound 1388, tert-butyl 3-[5-[(6-amino-2-pyridyl)sulfonylcarbamoyl]-2-tert-butyl-6-(2,2,4-trimethylpyrrolidin-1-yl)-3-pyridyl]-8-azabicyclo[3.2.1]oct-3-ene-8-carboxylate], the EC30 entry is recorded as “+++ (“+++” means <3 uM)”. Consider `CC(C)COc1cc(F)cc(-c2ccc(C(=O)NS(=O)(=O)c3ccccc3)c(N3C[C@H](C)CC3(C)C)n2)c1` [Compound 1396, N-(benzenesulfonyl)-6-(3-fluoro-5-isobutoxy-phenyl)-2-[(4R)-2,2,4-trimethylpyrrolidin-1-yl]pyridine-3-carboxamide], for which the EC30 result is recorded as “+++ (“+++” means <3 uM)”. As for `CC(C)COc1cc(F)cc(-c2ccc(C(=O)NS(=O)(=O)c3ccccn3)c(N3C[C@@H](C)CC3(C)C)n2)c1` [Compound 1832, 6-(3-fluoro-5-isobutoxy-phenyl)-N-(2-pyridylsulfonyl)-2-[(4S)-2,2,4-trimethylpyrrolidin-1-yl]pyridine-3-carboxamide], the EC30 result is “+++ (“+++” means <3 uM)”. The result for `CC(C)COc1cc(F)cc(-c2ccc(C(=O)NS(=O)(=O)N3CCCC(C)(NC(=O)OC(C)(C)C)C3)c(N3CC(C)CC3(C)C)n2)c1` (stereo not shown) [Compound 1520, tert-butyl N—[1-[[6-(3-fluoro-5-isobutoxy-phenyl)-2-(2,2,4-trimethylpyrrolidin-1-yl)pyridine-3-carbonyl]sulfamoyl]-3-methyl-3-piperidyl]carbamate] reads “+++ (“+++” means <3 uM)”; that for `Cc1cc(-c2ccc(C(=O)NS(=O)(=O)c3cccc(N)n3)c(N3C[C@@H](C)CC3(C)C)n2)ccc1F` [Compound 1930, N-[(6-amino-2-pyridyl)sulfonyl]-6-(4-fluoro-3-methyl-phenyl)-2-[(4S)-2,2,4-trimethylpyrrolidin-1-yl]pyridine-3-carboxamide], “+++ (“+++” means <3 uM)”; that for `CC(Nc1ncccc1C(=O)NS(=O)(=O)c1cccc(N)n1)c1cccc2ccccc12` (stereo not shown) [Compound 1769, N-[(6-amino-2-pyridyl)sulfonyl]-2-[1-(1-naphthyl)ethylamino]pyridine-3-carboxamide], “++ (“++” means between 3 uM and 10 uM)”. The result for `CCOC1CCCN(c2nc(-c3cc(F)cc(OCC(C)C)c3)ccc2C(=O)NS(=O)(=O)c2ccn[nH]2)C1` (stereo not shown) [Compound 843, 2-(3-ethoxy-1-piperidyl)-6-(3-fluoro-5-isobutoxy-phenyl)-N-(1H-pyrazol-5-ylsulfonyl)pyridine-3-carboxamide] reads “++ (“++” means between 3 uM and 10 uM)”. As for `CC(C)(C)COc1cccc(-c2ccc(C(=O)NS(=O)(=O)c3cccc(N)n3)c(N3CCCC3(C)C)n2)n1` [Compound 1328, N-[(6-amino-2-pyridyl)sulfonyl]-6-[6-(2,2-dimethylpropoxy)-2-pyridyl]-2-(2,2-dimethylpyrrolidin-1-yl)pyridine-3-carboxamide], the entry is “+++ (“+++” means <3 uM)”. As to `CC1CN(c2ncc(-c3ccc(C(C)C)cc3)cc2C(=O)NS(=O)(=O)c2cccc(N)n2)C(C)(C)C1` (stereo not shown) [Compound 1809], the EC30 result is reported as “+++ (“+++” means <3 uM)”. As for `COc1ncccc1S(=O)(=O)NC(=O)C1CCc2ccccc2CN1Cc1c(C)cc(C)cc1C` (stereo not shown) [Compound 1342, N-[(2-methoxy-3-pyridyl)sulfonyl]-2-[(2,4,6-trimethylphenyl)methyl]-1,3,4,5-tetrahydro-2-benzazepine-3-carboxamide], the entry is “+++ (“+++” means <3 uM)”; as for `CC(C)Oc1ccc(-c2ccc(C(=O)NS(=O)(=O)c3cccc(N)n3)c(N3CCC(OCc4ccccc4)CC3)n2)cn1` [Compound 1012, N-[(6-amino-2-pyridyl)sulfonyl]-2-(4-benzyloxy-1-piperidyl)-6-(6-isopropoxy-3-pyridyl)pyridine-3-carboxamide], “+++ (“+++” means <3 uM)”; as for `Cc1cc(C)c(CN2Cc3c(O)cccc3C2(C)C(=O)NS(=O)(=O)c2cccc(N)n2)c(C)c1` (stereo not shown) [Compound 1338, N-[(6-amino-2-pyridyl)sulfonyl]-4-hydroxy-1-methyl-2-[(2,4,6-trimethylphenyl)methyl]isoindoline-1-carboxamide], “++ (“++” means between 3 uM and 10 uM)”. `COc1cc(C(C)=O)ccc1Oc1cccc(S(=O)(=O)NC(=O)c2cccnc2N2CC(C)CC2(C)C)n1` (stereo not shown) [Compound 1744, N—[[6-(4-acetyl-2-methoxy-phenoxy)-2-pyridyl]sulfonyl]-2-(2,2,4-trimethylpyrrolidin-1-yl)pyridine-3-carboxamide]: the EC30 result was “++ (“++” means between 3 uM and 10 uM)”. For `Cc1cc(C)c(Oc2nc(-c3ccc4c(c3)CCO4)ccc2C(=O)NS(=O)(=O)c2cccc(N)n2)c(C)c1` [Compound 1048], the EC30 entry is given as “+++ (“+++” means <3 uM)”. As for `CC1CN(c2nc(-c3ccc(C(C)C)nc3)ccc2C(=O)NS(=O)(=O)c2cccc(N)n2)C(C)(C)C1` (stereo not shown) [Compound 896, N-[(6-amino-2-pyridyl)sulfonyl]-6-(6-isopropyl-3-pyridyl)-2-(2,2,4-trimethylpyrrolidin-1-yl)pyridine-3-carboxamide], the entry is “+++ (“+++” means <3 uM)”. Consider `C[C@@H]1CN(c2nc(C(C)(C)C)c(/C=C/C3CCCCC3)cc2C(=O)NS(=O)(=O)c2cccc(N)n2)C(C)(C)C1` [Compound 1484, N-[(6-amino-2-pyridyl)sulfonyl]-6-tert-butyl-5-[(E)-2-cyclohexylvinyl]-2-[(4S)-2,2,4-trimethylpyrrolidin-1-yl]pyridine-3-carboxamide], for which the EC30 result was “+++ (“+++” means <3 uM)”.

With `CC1CN(c2ncccc2C(=O)NS(=O)(=O)c2cccc(NCc3cc(F)ccc3F)n2)C(C)(C)C1` (stereo not shown) [Compound 1770, N—[[6-[(2,5-difluorophenyl)methylamino]-2-pyridyl]sulfonyl]-2-(2,2,4-trimethylpyrrolidin-1-yl)pyridine-3-carboxamide], the EC30 entry is on record as “+++ (“+++” means <3 uM)”. Take `CC(C)COc1cc(F)cc(-c2ccc(C(=O)NS(=O)(=O)c3cccc(N)n3)c(C3=CC(C)(C)OC(C)(C)C3)n2)c1` [Compound 1368, N-[(6-amino-2-pyridyl)sulfonyl]-6-(3-fluoro-5-isobutoxy-phenyl)-2-(2,2,6,6-tetramethyl-3H-pyran-4-yl)pyridine-3-carboxamide]: the EC30 result was “+++ (“+++” means <3 uM)”. Take `CCOc1ccc(-c2ccc(C(=O)NS(=O)(=O)c3nccnc3N)c(NCC3(C)CCOCC3)n2)cc1` [Compound 1203, N-(3-aminopyrazin-2-yl)sulfonyl-6-(4-ethoxyphenyl)-2-[(4-methyltetrahydropyran-4-yl)methylamino]pyridine-3-carboxamide]: the EC30 entry was “+ (“+” means greater than 10 uM)”. As to `CC1CN(c2nc(C(C)(C)C)c(C3=CCN(C(=O)OC(C)(C)C)CC3)cc2C(=O)NS(=O)(=O)c2cccc(N)n2)C(C)(C)C1` (stereo not shown) [Compound 1522, tert-butyl 4-[5-[(6-amino-2-pyridyl)sulfonylcarbamoyl]-2-tert-butyl-6-(2,2,4-trimethylpyrrolidin-1-yl)-3-pyridyl]-3,6-dihydro-2H-pyridine-1-carboxylate], the EC30 result was “+++ (“+++” means <3 uM)”.
